Publication PMC9030254, “Target Hopping from Protein Kinases to PXR: Identification of Small-Molecule Protein Kinase Inhibitors as Selective Modulators of Pregnane X Receptor from TüKIC Library” (Cells, 2022)

Tests used:
Assay in all cases: Kinase profiling
Type in all cases: biochemical
TEC = target: T1, TEC (Homo sapiens, UniProt P42680)
T1 construct: purchased ProQinase (Freiburg, Germany)
T1 sequence (P42680 1-631): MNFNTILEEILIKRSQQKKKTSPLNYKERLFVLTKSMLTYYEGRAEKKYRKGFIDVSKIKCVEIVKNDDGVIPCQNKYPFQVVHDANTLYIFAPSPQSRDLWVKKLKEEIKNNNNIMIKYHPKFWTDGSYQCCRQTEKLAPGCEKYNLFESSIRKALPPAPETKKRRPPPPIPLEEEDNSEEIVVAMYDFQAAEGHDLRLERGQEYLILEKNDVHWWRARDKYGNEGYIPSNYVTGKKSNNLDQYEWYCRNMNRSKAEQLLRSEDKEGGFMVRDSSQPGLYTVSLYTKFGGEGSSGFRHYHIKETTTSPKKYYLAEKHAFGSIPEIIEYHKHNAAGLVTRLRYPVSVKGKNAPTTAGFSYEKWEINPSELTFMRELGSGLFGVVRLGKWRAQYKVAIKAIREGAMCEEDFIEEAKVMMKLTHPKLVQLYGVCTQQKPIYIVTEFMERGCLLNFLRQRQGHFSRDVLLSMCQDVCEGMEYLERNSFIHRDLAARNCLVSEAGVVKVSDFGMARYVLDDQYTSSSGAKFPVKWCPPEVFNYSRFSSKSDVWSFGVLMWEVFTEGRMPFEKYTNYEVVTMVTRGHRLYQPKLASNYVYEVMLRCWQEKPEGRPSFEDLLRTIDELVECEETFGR
Description: (§1) The analysis was performed by ProQinase (Freiburg, Germany).

PKMzeta = target: T2, PKMzeta (Homo sapiens, UniProt Q05513)
T2 construct: PKMzeta; purchased ProQinase (Freiburg, Germany)
T2 sequence (Q05513 184-592 limits assumed): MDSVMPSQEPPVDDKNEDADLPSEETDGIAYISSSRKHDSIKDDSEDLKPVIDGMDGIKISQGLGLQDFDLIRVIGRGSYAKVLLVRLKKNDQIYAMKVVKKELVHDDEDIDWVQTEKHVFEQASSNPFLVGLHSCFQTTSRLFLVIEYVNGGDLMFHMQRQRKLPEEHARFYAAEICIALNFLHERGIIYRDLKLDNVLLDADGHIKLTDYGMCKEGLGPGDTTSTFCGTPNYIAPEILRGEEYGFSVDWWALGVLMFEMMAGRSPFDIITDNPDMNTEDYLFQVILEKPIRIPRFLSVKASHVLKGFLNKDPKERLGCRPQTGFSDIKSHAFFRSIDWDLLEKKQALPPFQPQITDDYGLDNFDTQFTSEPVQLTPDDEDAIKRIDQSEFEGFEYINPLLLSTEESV
Description: as §1

NLK = target: T3, NLK (Homo sapiens, UniProt Q9UBE8)
T3 construct: purchased ProQinase (Freiburg, Germany)
T3 sequence (Q9UBE8 1-527): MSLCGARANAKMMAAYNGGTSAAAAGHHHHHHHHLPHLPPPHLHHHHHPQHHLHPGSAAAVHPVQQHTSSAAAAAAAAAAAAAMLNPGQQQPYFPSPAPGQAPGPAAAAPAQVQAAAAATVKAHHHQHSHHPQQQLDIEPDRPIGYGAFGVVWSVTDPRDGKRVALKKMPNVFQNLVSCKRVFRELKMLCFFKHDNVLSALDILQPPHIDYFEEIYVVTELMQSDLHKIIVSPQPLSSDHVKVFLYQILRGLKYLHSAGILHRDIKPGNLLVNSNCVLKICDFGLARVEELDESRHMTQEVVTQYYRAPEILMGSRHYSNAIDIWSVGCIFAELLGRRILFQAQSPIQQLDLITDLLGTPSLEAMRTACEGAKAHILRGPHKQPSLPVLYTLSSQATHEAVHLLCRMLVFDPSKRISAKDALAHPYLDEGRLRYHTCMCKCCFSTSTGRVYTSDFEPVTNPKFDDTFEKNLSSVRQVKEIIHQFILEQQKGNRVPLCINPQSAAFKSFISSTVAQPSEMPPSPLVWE
Description: as §1

LCK = target: T4, LCK (Homo sapiens, UniProt P06239)
T4 construct: purchased ProQinase (Freiburg, Germany)
T4 sequence (P06239 whole entry): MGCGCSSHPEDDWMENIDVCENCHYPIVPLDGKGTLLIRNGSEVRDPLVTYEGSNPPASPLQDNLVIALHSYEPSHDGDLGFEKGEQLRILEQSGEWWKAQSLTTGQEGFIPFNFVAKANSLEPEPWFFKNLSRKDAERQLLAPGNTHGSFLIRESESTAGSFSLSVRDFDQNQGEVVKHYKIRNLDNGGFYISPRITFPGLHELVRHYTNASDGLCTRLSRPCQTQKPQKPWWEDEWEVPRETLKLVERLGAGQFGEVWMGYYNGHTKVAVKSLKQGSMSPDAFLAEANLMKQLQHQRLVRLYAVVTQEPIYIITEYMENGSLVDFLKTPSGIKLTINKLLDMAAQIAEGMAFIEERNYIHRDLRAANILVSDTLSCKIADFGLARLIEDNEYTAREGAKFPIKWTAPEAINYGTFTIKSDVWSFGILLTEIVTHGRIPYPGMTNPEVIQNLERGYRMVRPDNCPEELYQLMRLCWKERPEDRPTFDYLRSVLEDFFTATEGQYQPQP
Description: as §1

STK23 = target: T5, STK23 (Homo sapiens, UniProt Q9UPE1)
T5 construct: purchased ProQinase (Freiburg, Germany)
T5 sequence (Q9UPE1 whole entry): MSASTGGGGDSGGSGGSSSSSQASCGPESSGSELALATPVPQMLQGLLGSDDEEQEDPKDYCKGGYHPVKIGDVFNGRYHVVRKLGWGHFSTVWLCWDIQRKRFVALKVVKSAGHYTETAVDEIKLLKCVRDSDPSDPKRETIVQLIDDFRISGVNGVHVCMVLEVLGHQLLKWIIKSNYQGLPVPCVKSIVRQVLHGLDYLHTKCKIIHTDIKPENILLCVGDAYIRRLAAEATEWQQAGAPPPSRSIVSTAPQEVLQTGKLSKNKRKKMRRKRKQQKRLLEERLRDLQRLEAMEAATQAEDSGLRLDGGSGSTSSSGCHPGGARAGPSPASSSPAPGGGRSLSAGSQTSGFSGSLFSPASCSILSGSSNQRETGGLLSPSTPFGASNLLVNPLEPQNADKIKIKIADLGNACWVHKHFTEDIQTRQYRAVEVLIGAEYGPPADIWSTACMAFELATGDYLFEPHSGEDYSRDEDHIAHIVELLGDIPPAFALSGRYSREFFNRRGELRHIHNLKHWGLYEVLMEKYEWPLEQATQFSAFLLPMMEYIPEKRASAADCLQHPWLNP
Description: as §1

CDK18/CycY = target: T6, CDK18/CycY (Homo sapiens, UniProt Q07002)
T6 construct: purchased ProQinase (Freiburg, Germany)
T6 sequence (Q07002 whole entry): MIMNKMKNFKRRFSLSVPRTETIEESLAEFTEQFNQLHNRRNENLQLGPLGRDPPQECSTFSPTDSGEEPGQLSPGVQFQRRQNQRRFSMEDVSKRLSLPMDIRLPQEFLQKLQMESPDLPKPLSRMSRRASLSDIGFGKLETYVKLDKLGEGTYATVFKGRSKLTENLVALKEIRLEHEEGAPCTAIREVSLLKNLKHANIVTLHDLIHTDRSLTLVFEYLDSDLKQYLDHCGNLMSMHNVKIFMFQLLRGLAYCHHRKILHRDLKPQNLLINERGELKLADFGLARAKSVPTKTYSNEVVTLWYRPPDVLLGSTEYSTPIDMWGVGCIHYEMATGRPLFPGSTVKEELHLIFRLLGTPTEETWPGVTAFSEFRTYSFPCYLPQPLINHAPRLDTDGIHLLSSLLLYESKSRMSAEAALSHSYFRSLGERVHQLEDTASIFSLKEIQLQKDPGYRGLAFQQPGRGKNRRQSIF
T6 sequence (Q8ND76 whole entry partner): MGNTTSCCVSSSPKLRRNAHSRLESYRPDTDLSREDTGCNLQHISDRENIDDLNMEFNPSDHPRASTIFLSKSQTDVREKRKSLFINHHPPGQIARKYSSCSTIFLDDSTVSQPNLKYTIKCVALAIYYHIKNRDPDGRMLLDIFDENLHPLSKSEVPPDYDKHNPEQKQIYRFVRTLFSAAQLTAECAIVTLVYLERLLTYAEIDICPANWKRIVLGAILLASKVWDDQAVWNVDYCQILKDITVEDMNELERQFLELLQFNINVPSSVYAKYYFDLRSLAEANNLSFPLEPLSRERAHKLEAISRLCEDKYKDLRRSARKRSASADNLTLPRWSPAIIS
Description: as §1

ULK2 = target: T7, ULK2 (Homo sapiens, UniProt Q8IYT8)
T7 construct: purchased ProQinase (Freiburg, Germany)
T7 sequence (Q8IYT8 1-1036): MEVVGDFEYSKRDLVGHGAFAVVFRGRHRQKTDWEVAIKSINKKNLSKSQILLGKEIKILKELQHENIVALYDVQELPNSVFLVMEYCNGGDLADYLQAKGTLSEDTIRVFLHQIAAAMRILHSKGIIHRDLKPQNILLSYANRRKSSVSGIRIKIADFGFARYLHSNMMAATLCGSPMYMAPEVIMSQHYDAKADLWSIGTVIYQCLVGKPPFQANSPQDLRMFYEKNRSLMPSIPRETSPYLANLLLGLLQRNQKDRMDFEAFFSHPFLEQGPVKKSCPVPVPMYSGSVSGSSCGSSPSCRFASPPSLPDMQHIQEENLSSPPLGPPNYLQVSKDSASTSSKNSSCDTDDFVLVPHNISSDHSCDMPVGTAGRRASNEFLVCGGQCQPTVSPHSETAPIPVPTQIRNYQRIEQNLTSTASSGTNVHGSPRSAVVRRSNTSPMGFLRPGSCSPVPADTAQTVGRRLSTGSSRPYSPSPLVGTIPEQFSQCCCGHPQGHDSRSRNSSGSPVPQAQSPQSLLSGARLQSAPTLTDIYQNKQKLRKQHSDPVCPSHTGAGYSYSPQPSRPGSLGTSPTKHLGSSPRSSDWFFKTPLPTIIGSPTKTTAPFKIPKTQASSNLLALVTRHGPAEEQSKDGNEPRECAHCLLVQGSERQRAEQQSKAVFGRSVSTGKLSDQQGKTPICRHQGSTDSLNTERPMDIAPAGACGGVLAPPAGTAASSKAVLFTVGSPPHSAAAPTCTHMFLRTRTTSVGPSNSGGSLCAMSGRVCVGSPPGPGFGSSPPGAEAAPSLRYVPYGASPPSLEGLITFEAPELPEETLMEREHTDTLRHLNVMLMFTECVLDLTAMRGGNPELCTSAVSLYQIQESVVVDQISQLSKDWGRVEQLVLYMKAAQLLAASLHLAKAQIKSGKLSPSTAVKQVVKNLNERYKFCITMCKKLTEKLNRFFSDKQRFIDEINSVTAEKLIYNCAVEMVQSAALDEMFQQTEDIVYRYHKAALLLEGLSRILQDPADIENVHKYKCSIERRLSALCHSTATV
Description: as §1

| SMILES | Residual activity (TEC; 1.0E-05 M) | Residual activity (TEC; 1.0E-06 M) | Residual activity (PKMzeta; 1.0E-05 M) | Residual activity (PKMzeta; 1.0E-06 M) | Residual activity (NLK; 1.0E-05 M) | Residual activity (NLK; 1.0E-06 M) | Residual activity (LCK; 1.0E-05 M) | Residual activity (LCK; 1.0E-06 M) | Residual activity (STK23; 1.0E-05 M) | Residual activity (STK23; 1.0E-06 M) | Residual activity (CDK18/CycY; 1.0E-05 M) | Residual activity (CDK18/CycY; 1.0E-06 M) | Residual activity (ULK2; 1.0E-05 M) | Residual activity (ULK2; 1.0E-06 M) |
| --- | --- | --- | --- | --- | --- | --- | --- | --- | --- | --- | --- | --- | --- | --- |
| O=C(Nc1ccc(F)c(Nc2ccc3c(c2)CCCCC3=O)c1)c1cccc(F)c1 [Compound 109] | 80 % of control | 94 % of control | 88 % of control | 103 % of control | 91 % of control | 97 % of control | 84 % of control | 102 % of control | 76 % of control | 78 % of control | 98 % of control | 91 % of control | 113 % of control | 99 % of control |
| O=C(Cc1ccccc1)Nc1ccc(F)c(Nc2ccc3c(c2)CCCCC3=O)c1 [Compound 100] | 69 % of control | 88 % of control | 98 % of control | 105 % of control | 96 % of control | 96 % of control | 66 % of control | 107 % of control | 79 % of control | 89 % of control | 88 % of control | 93 % of control | 103 % of control | 113 % of control |
